What all share (type): cell-based, human
One assay deals with IRF-1. In words: EMSA of TNF-α induced IRF-1 binding activity to VCAM-1 promoter. Conditions: 0.5 mM and 1 mM; 2 hr. TNF-α; HAEC nuclear extract. How it is done: Nuclear Extracts and EMSA: Nuclear extracts are prepared from harvested HAEC using NE-PER® extraction reagents (Pierce Chemical Co.; Rockford, Ill.) in the presence of a protease inhibitor cocktail (PMSF, Leupeptin, Pepstatin-A). Oligonucleotides (Biosynthesis Inc.; Lewisville, Tex.) are annealed and precipitated double stranded oligonucleotides end labeled with γ-^32P-ATP using T4 polynucleotide kinase enzyme. Binding reactions (20 min., room temperature) included ^32P-labeled probe (activity 100,000 cpm), 3-6 μg HAEC nuclear extract, 1 μg poly(dI-dC), 1 mM DTT, 10% glycerol and 1× binding buffer. Binding buffer (10×) for NF-κB EMSA is 200 mM HEPES-KOH (pH7.9), 340 mM KCl, 50 mM MgCl2, 5 mM EDTA (pH 8.0), 1% Triton X-100. Binding buffer (10×) for IRF-1 EMSA is 100 mM Tris-HCL (pH 7.5), 500 mM NaCl, 50 mM MgCl2, 10 mM EDTA (pH 8.0). In competition studies, nuclear extracts are incubated with 100 fold molar excess of unlabeled double stranded oligonucleotide. In supershift studies, nuclear extracts are incubated with 2 μg of appropriate antibodies. After the incubations, reaction mixtures are electrophoresed (160V, room temperature) on 5% non-denaturing polyacrylamide gels containing 5% glycerol in 1×TBE (50 mM Tris, 50 mM boric acid, and 1 mM EDTA). Gels are dried and autoradiographed. Each experiment is replicated at least twice. […]
For orientation: In EMSA bound probe runs differently from free probe, usually more slowly.

In another assay the test system is E-selectin. The experiment in a line: ELISA of TNF-α induced E-selectin protein on HAEC. How it is done: (§1) Cell culture and treatment of HAEC: Human aortic endothelial cells (HAEC; Cambrex Bio Science Walkersville, Inc., Walkersville, Md.) are cultured in M199 supplemented with 8% FBS, 100 μg/ml heparin, 10 ng/ml endothelial growth factor, 100 μg/ml hypothalamus extract, 2 mM L-glutamine, 1% non-essential amino acids, 100 units/ml penicillin and 100 μg/ml streptomycin. HAEC are subcultured on gelatin pre-coated: 96-well tissue culture plates (Corning Incorporated; Corning, N.Y.) for viability assays and ELISA; 100-mm tissue culture dishes (BD Falcon; Franklin Lakes, N.J.) for Northern blot analyses, Western blot analyses and EMSA; 35-mm tissue culture dishes (Corning) for adhesion assays and on 24-well tissue culture plates for luciferase promoter assays (BD Falcon). All experiments are performed with confluent HAEC monolayers. Unless noted otherwise, HAEC are treated with 25 ng/ml TNF-α, in the absence or presence of C-10 or 0.25% DMSO (carrier control for C-10), for 2-24 hrs. The concentration of DMSO is held constant at 0.25% (unless indicated otherwise) for all of the C-10 conditions.
HAEC are washed with cold HBSS+, fixed in 1% formaldehyde at 4° C. for 20 min., washed with cold HBSS+, and incubated in cold M199 containing 8% FBS. Unless otherwise noted, from this point on all antibody dilutions and washes are carried out with M199 containing 8% FBS. Murine mAbs (primary mAbs) to ECAMs are added (10 μg/ml) and the HAEC incubated at 4° C. for 20 min. Following the incubation, the wells are washed and a peroxidase conjugated polyclonal (secondary) antibody to mouse IgG is added (diluted 1:50). After a 20 min. incubation at 4° C., the wells are washed and treated with OPD dissolved in phosphate citrate buffer containing sodium perborate. Following a 10 min. incubation at room temperature, the absorbance of the fluid in each well is determined at 450 nm using a micro-well plate spectrophotometer (Molecular Devices; Sunnyvale, Calif.). In every experiment, each condition is run in triplicate wells.
For orientation: In an ELISA, binding on a coated surface is turned into a signal by an enzyme label.

The test system of the next assay is VCAM-1 promoter. In words: TNF-alpha-induced VCAM-1 promoter activity, dual luciferase reporter assay in HAEC. Here is the method: as §1
Dual Luciferase Assay: Four human VCAM-1 promoter deletion constructs of different length, −1641/+12, −288/+12, −228/+12, −85/+12 bp are amplified by PCR from human genomic DNA. Each upstream primer contained a restriction endonuclease Mlu I site located at the 5′-end of the primer. The downstream primer corresponding to the +12 end contained a restriction endonuclease Xho I site at the 5′-end. The PCR products are digested by Mlu I and Xho I (New England Biolabs Inc., Beverly, Mass.) and ligated into a similarly digested pGL3 basic luciferase reporter vector (Promega, Madison, Wis.). Cells are transfected for 24 hrs. with 400 ng of indicated constructs, or pGL3 basic luciferase reporter vector as control, using GeneJuice transfection reagent (Novagen Inc., Madison, Wis.). All cells are also transfected with phRL-TK (Int−) vector (Promega), which contains wildtype Renilla luciferase (Rluc) as an “internal” transfection control. Luciferase assays are conducted with the Dual-Luciferase Reporter Assay System (Promega) on a Lumat LB 9507 tube luminometer. In every experiment, each condition is run in triplicate wells. Each experiment is replicated at least twice.

As to `Cn1c(-c2ccccc2)cnc1S` [5-Phenylmethimazole], the “effect on formation of TNF-α induced IRF-1 complex (EMSA)” value in the assay with IRF-1 was “inhibits”. Besides, the figures for the “effect on TNF-α induced protein expression of E-selectin” value in the assay with E-selectin (4 hr. TNF-α) and in the assay with E-selectin (24 hr. TNF-α) were “little to no effect” and “significantly reduces”, respectively. The “concentration at which significant reduction of TNF-α induced E-selectin protein expression is observed” value in the assay with E-selectin (24 hr. TNF-α) is given as at least 0.05 mM. Besides, the “effect on TNF-α induced promoter activities of the four VCAM-1 constructs” value with VCAM-1 promoter (0.3 mM, 10 ng/ml TNF-α 6 hrs., −1641/+12, −288/+12, −228/+12, −85/+12 bp constructs) is listed as “inhibits”. In addition, the “% INHIBITION of TNF-alpha-induced VCAM-1 promoter activity” value in the assay with VCAM-1 promoter (10 :M, hVCAM-1(−228 to +12)-luciferase construct, mean ± SD) turned out to be 31 ± 5%; with VCAM-1 promoter (100 :M, hVCAM-1(−228 to +12)-luciferase construct, mean ± SD), 61 ± 3%. In addition, the inhibition (in general, the share of the control response that was lost under treatment) at 5000 µM with VCAM-1 promoter (Homo sapiens, 5.0 mM, hVCAM-1(−228 to +12)-luciferase construct, mean ± SD) was found to be 72 ± 3%.

The values above are taken from US20050209295A1, “Methimazole derivatives and tautomeric cyclic thiones to inhibit cell adhesion” (priority 2004, published 2005).
